Holding throughout (type): cell-based
One data set addresses T1, PLK1 (Homo sapiens, UniProt P53350).
T1 construct: endogenous in cells; host or cells: HeLa LgBit (Plk1-HiBit KI): HeLa stably expressing LgBit, with a CRISPR/Cas9 knock-in of HiBit at the endogenous PLK1 locus
As to the kind of experiment: Luciferase assay for PLK1 in HeLa LgBit (Plk1-HiBit KI) cell line. The conditions noted are these: 300 nM compound, luminescence after 9 hours. The procedure, abridged:
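Luminescence, followed in real time after adding compound at 300 nM and Endurazine substrate, is reported relative to DMSO-treated wells. Cells are a HeLa LgBit line with a Plk1-HiBit knock-in, synchronized by 2 mM thymidine for 24 h, released, and cultured 18 h before treatment.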
(In general: With HiBiT, luminescence reflects the tagged protein that the partner subunit can reach.)

For a further data set, the system named is MRC-5 cell line. As to the kind of experiment: Cell viability assay for MRC-5 cell line (EZ-Cytox). To be noted: for IC50: Homo sapiens, MRC5, 120 h, MRC-5 normal cell line, 5 days, 10000 nM to 1.52 nM, N.D. = no cytotoxicity until 10 μM, read-out: Activity: IC50 value of Exemplary Compound to MRC-5 cell line. As for the experimental part:
4. Cell Viability Assay for MRC-5 Cell Line
(1) Culture of MRC-5 Cell Line
Passage of cultured cells was maintained within P15.
(2) Treatment of Compounds of the Present Invention
Then, it was cultured in 37° C.
(3) Cytotoxicity Experiment
CO2 incubator for 4 hours.

For the next data set, the system named is NCI-H526 cell line. Nature of the data set: Cell viability assay for H526 cell (EZ-Cytox). To be noted: Homo sapiens, NCI-H526, 120 h; H526 cells, 5 days, 3000 nM to 0.46 nM. As for the experimental part: (1) Culture of NCI-H526 Cell Line
(2) Treatment of Compounds of the Present Invention and Method of Cell Viability Assay
After treating the compound to each well to make the total volume of 200 μL, it was cultured in a CO2 incubator (Thermo Fisher Science, Cat. No. 4111) for 5 days.
The absorbance of the completely cultured sample was measured by setting the wavelength of a plate reader (BMG Labtech, CLARIOstar Plus) to […], and was measured after shaking for 3 minutes in a plate reader before measurement.
In Table 3, Activity represents IC50 value of each Exemplary Compound treatment group to H526 cell line (A: <30 nM, B: <50 nM, C: <100 nM, D: <200 nM, E: <400 nM).

T1 sequence (P53350 whole entry): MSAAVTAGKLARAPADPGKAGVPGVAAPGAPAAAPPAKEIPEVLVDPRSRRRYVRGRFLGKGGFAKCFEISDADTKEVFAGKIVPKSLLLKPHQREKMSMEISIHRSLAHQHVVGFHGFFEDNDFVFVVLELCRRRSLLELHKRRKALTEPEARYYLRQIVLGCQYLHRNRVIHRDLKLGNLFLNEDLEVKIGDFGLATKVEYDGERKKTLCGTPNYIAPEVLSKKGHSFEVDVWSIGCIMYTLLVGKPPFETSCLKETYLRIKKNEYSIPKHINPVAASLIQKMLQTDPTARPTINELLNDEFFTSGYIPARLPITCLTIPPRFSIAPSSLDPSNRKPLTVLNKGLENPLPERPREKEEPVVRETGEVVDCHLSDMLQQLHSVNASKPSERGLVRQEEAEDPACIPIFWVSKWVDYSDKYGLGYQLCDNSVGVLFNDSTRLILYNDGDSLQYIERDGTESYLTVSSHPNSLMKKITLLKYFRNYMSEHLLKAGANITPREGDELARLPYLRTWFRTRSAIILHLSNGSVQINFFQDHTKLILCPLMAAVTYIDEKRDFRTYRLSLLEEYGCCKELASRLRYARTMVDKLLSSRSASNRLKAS

`COc1cc(C(=O)NC2CCN(C(=O)CCN3CCN(c4cccc5c4C(=O)N(C4CCC(=O)NC4=O)C5=O)CC3)CC2)c(C(F)(F)F)cc1Nc1ncc2c(n1)N(C1CCCC1)CC(F)(F)C(=O)N2C` (centres unmarked) [Compound 119, 4-((9-cyclopentyl-7,7-difluoro-5-methyl-6-oxo-6,7,8,9-tetrahydro-5H-pyrimido[4,5-b][1,4]diazepin-2-yl)amino)-N-(1-(3-(4-(2-(2,6-dioxopiperidin-3-yl)-1,3-dioxoisoindolin-4-yl)piperazin-1-yl)propanoyl)piperidin-4-yl)-5-methoxy-2-(trifluoromethyl) benzamide]: the “Activity: ratio of the luminescense value of each Exemplary Compound treatment group to DMSO treatment group” value (from here on “Activity: ratio”) at PLK1 is “++ (++<0.6)”. Moreover, the IC50 is more than 10000 nM in the data set on MRC-5 cell line and less than 200 nM in the data set on NCI-H526 cell line.
Consider `COc1cc(C(=O)N2CCC(N3CCC(C#Cc4ccc5c(c4)C(=O)N(C4CCC(=O)NC4=O)C5=O)CC3)CC2)ccc1Nc1ncc2c(n1)N(C1CCCC1)CC(F)(F)C(=O)N2C` (centres unmarked) [Compound 182, 5-((1′-(4-((9-cyclopentyl-7,7-difluoro-5-methyl-6-oxo-6,7,8,9-tetrahydro-5H-pyrimido[4,5-b][1,4]diazepin-2-yl)amino)-3-methoxybenzoyl)-[1,4′-piperidin]-4-yl)ethynyl)-2-(2,6-dioxopiperidin-3-yl)isoindoline-1,3-dione], for which the “Activity: ratio” value on PLK1 is “++ (++<0.6)”. Also, the IC50 with MRC-5 cell line was 9750 nM.
As to `CC[C@@H]1C(=O)N(C)c2cnc(Nc3ccc(C(=O)NCCOCCOCCNc4cccc5c4C(=O)N(C4CCC(=O)NC4=O)C5=O)cc3OC)nc2N1C1CCCC1` (some centres unmarked) [Comparative Compound 1, reference compound], in the data set with MRC-5 cell line (MRC-5, in words), the “cytotoxicity in normal cell line” value is recorded as “exhibited a high level of cytotoxicity in normal cell line”.
`COc1cc(C(=O)NC2CCN(C(=O)COc3cccc4c3C(=O)N(C3CCC(=O)NC3=O)C4=O)CC2)c(F)cc1Nc1ncc2c(n1)N(C1CCCC1)CC(F)(F)C(=O)N2C` (centres unmarked) [Compound 37, 4-((9-cyclopentyl-7,7-difluoro-5-methyl-6-oxo-6,7,8,9-tetrahydro-5H-pyrimido[4,5-b][1,4]diazepin-2-yl)amino)-N-(1-(2-((2-(2,6-dioxopiperidin-3-yl)-1,3-dioxoisoindolin-4-yl)oxy)acetyl)piperidin-4-yl)-2-fluoro-5-methoxybenzamide]: the “Activity: ratio” value on PLK1 was “++ (++<0.6)”. In the data set on NCI-H526 cell line, this molecule displayed an IC50 of less than 400 nM.
Consider `COc1cc(C(=O)N[C@H]2CCN(CCOc3cccc4c3C(=O)N(C3CCC(=O)NC3=O)C4=O)C2)ccc1Nc1ncc2c(n1)N(C1CCCC1)CC(F)(F)C(=O)N2C` (stereo partly drawn) [Compound 9, 4-((9-cyclopentyl-7,7-difluoro-5-methyl-6-oxo-6,7,8,9-tetrahydro-5H-pyrimido[4,5-b][1,4]diazepin-2-yl)amino)-N-((3S)-1-(2-((2-(2,6-dioxopiperidin-3-yl)-1,3-dioxoisoindolin-4-yl)oxy)ethyl)pyrrolidin-3-yl)-3-methoxybenzamide], for which the “Activity: ratio” value on PLK1 is given as “++ (++<0.6)”. Besides, the IC50 in the data set on MRC-5 cell line was more than 10000 nM.
For `COc1cc(C(=O)NCC2CCN(CC3CCN(c4cccc5c4C(=O)N(C4CCC(=O)NC4=O)C5=O)CC3)CC2)ccc1Nc1ncc2c(n1)N(C1CCCC1)CC(F)(F)C(=O)N2C` (centres unmarked) [Compound 53, 4-((9-cyclopentyl-7,7-difluoro-5-methyl-6-oxo-6,7,8,9-tetrahydro-5H-pyrimido[4,5-b][1,4]diazepin-2-yl)amino)-N-((1-((1-(2-(2,6-dioxopiperidin-3-yl)-1,3-dioxoisoindolin-4-yl)piperidin-4-yl)methyl)piperidin-4-yl)methyl)-3-methoxybenzamide], the “Activity: ratio” value at PLK1 is recorded as “+++ (+++: <0.3)”. This molecule also showed an IC50 with NCI-H526 cell line of less than 50 nM.
As to `COc1cc(C(=O)NN2CCC(N3CC4(CCN(c5cccc6c5CN(C5CCC(=O)NC5=O)C6=O)CC4)C3)CC2)ccc1Nc1ncc2c(n1)N(C(C)C)CC(F)(F)C(=O)N2C` (centres unmarked) [Compound 218, 4-((7,7-difluoro-9-isopropyl-5-methyl-6-oxo-6,7,8,9-tetrahydro-5H-pyrimido[4,5-b][1,4]diazepin-2-yl)amino)-N-(4-(7-(2-(2,6-dioxopiperidin-3-yl)-1-oxoisoindolin-4-yl)-2,7-diazaspiro[3.5]nonan-2-yl)piperidin-1-yl)-3-methoxybenzamide], the “Activity: ratio” value on PLK1 was “++ (++<0.6)”. The IC50 in the data set with NCI-H526 cell line was less than 50 nM.
The like results for `COc1cc(C(=O)NC2CCN(CC3CN(c4ccc5c(c4)C(=O)N(C4CCC(=O)NC4=O)C5=O)C3)CC2)ccc1Nc1ncc2c(n1)N(C1CCCC1)CC(F)(F)C(=O)N2C` (centres unmarked) [Compound 134, 4-((9-cyclopentyl-7,7-difluoro-5-methyl-6-oxo-6,7,8,9-tetrahydro-5H-pyrimido[4,5-b][1,4]diazepin-2-yl)amino)-N-(1-((1-(2-(2,6-dioxopiperidin-3-yl)-1,3-dioxoisoindolin-5-yl)azetidin-3-yl)methyl)piperidin-4-yl)-3-methoxybenzamide] were, in that order, “+++ (+++: <0.3)” and less than 30 nM.
On to `CN1C(=O)C(F)(F)CN(C2CCCC2)c2nc(Nc3ccc(C(=O)NC4CCN(C(=O)CCCNc5cccc6c5C(=O)N(C5CCC(=O)NC5=O)C6=O)CC4)cc3OC(F)(F)F)ncc21` (centres unmarked) [Compound 28, 4-((9-cyclopentyl-7,7-difluoro-5-methyl-6-oxo-6,7,8,9-tetrahydro-5H-pyrimido[4,5-b][1,4]diazepin-2-yl)amino)-N-(1-(4-((2-(2,6-dioxopiperidin-3-yl)-1,3-dioxoisoindolin-4-yl)amino)butanoyl)piperidin-4-yl)-3-(trifluoromethoxy)benzamide], for which, on PLK1, the “Activity: ratio” value is given as “++ (++<0.6)”. Also, the IC50 in the data set with MRC-5 cell line was more than 10000 nM.
Turning to `COc1cc(C(=O)NC2CCCN(C(=O)N3CCN(c4cccc5c4C(=O)N(C4CCC(=O)NC4=O)C5=O)CC3)C2)ccc1Nc1ncc2c(n1)N(C1CCCC1)CC(F)(F)C(=O)N2C` (centres unmarked) [Compound 145, 4-((9-cyclopentyl-7,7-difluoro-5-methyl-6-oxo-6,7,8,9-tetrahydro-5H-pyrimido[4,5-b][1,4]diazepin-2-yl)amino)-N-(1-(4-(2-(2,6-dioxopiperidin-3-yl)-1,3-dioxoisoindolin-4-yl)piperazine-1-carbonyl)piperidin-3-yl)-3-methoxybenzamide], the “Activity: ratio” value at PLK1 is given as “+++ (+++: <0.3)”. For the same molecule, the IC50 in the data set with NCI-H526 cell line is less than 50 nM.
The like results for `COc1cc(C(=O)N2CCC(N3CCN(CCOCCCNc4cccc5c4C(=O)N(C4CCC(=O)NC4=O)C5=O)CC3)CC2)c(F)cc1Nc1ncc2c(n1)N(C1CCCC1)CC(F)(F)C(=O)N2C` (centres unmarked) [Compound 190, 4-((3-(2-(4-(1-(4-((9-cyclopentyl-7,7-difluoro-5-methyl-6-oxo-6,7,8,9-tetrahydro-5H-pyrimido[4,5-b][1,4]diazepin-2-yl)amino)-2-fluoro-5-methoxybenzoyl)piperidin-4-yl)piperazin-1-yl)ethoxy)propyl)amino)-2-(2,6-dioxopiperidin-3-yl)isoindoline-1,3-dione] were, in that order, “++ (++<0.6)” and less than 30 nM.
For `COc1cc(C(=O)N2CCN(CCN3CCN(c4cccc5c4C(=O)N(C4CCC(=O)NC4=O)C5=O)CC3)CC2)ccc1Nc1ncc2c(n1)N(C1CCCC1)CC(F)(F)C(=O)N2C` (centres unmarked) [Compound 86, 4-(4-(2-(4-(4-((9-cyclopentyl-7,7-difluoro-5-methyl-6-oxo-6,7,8,9-tetrahydro-5H-pyrimido[4,5-b][1,4]diazepin-2-yl)amino)-3-methoxybenzoyl)piperazin-1-yl)ethyl)piperazin-1-yl)-2-(2,6-dioxopiperidin-3-yl)isoindoline-1,3-dione], the “Activity: ratio” value on PLK1 is listed as “++ (++<0.6)”. In the data set with NCI-H526 cell line, this molecule had a half-inhibitory concentration (IC50) of less than 400 nM.
The like results for `COc1cc(C(=O)N2CCC(CCCN3CCN(c4ccc5c(c4)C(=O)N(C4CCC(=O)NC4=O)C5=O)CC3)CC2)ccc1Nc1ncc2c(n1)N(C1CCCC1)CC(F)(F)C(=O)N2C` (centres unmarked) [Compound 99, 5-(4-(3-(1-(4-((9-cyclopentyl-7,7-difluoro-5-methyl-6-oxo-6,7,8,9-tetrahydro-5H-pyrimido[4,5-b][1,4]diazepin-2-yl)amino)-3-methoxybenzoyl)piperidin-4-yl)propyl)piperazin-1-yl)-2-(2,6-dioxopiperidin-3-yl)isoindoline-1,3-dione] were, in that order, “++ (++<0.6)” and less than 400 nM.

What is called IC50 is the concentration that gives 50% inhibition.

The values are drawn from patent publication US20250114460A1, “NOVEL PLK1 DEGRADATION INDUCING COMPOUND” (UPPTHERA, INC., priority 2021, published 2025).
